Read-outs that look alike come from different tables or passages of the source.
Key:
Format in all cases: in vivo
Rhyncosporium secalis = experiment: Barley scald (RHYNSE), percent disease control; details: 24 h, 1 Day Protectant, read-out: Disease control RHYNSE 1DP
Description: Technical grades of materials were dissolved in acetone, which were then mixed with nine volumes of water containing 110 ppm Triton X-100. The fungicide solutions were applied onto wheat seedlings using an automated booth sprayer to run-off. All sprayed plants were allowed to air dry prior to further handling. All fungicides were evaluated using the aforementioned method for their activity vs. all target diseases. Wheat leaf blotch and brown rust activity were also evaluated using track spray applications, in which case the fungicides were formulated as EC formulations, containing 0.1% Trycol 5941 in the spray solutions. Wheat plants (variety Yuma) were grown from seed in a greenhouse in 50% mineral soil/50% soil-less Metro mix until the first leaf was fully emerged, with 7-10 seedlings per pot. These plants were inoculated with an aqueous spore suspension of Septoria tritici either prior to or after fungicide treatments. After inoculation the plants were kept in 100% relative humidity (one day in a dark dew chamber followed by two to three days in a lighted dew chamber at 20° C.) to permit spores to germinate and infect the leaf. The plants were then transferred to a greenhouse set at 20° C. for disease to develop. When disease symptoms were fully expressed on the 1st leaves of untreated plants, infection levels were assessed on a scale of 0 to 100 percent disease severity. Percent disease control was calculated using the ratio of disease severity on treated plants relative to untreated plants. Evaluation of Fungicidal Activity: Barley Scald (Rhyncosporium secalis; Bayer Code […]) Barley seedlings (variety Harrington) were propagated in soil-less Metro mix, with each pot having 8 to 12 plants, and used in the test when first leaf was fully emerged. Test plants were inoculated by an aqueous spore suspension of Rhyncosporium secalis 24 hr after fungicide treatments. After inoculation the plants were kept in a dew room at 20° C. with 100% relative humidity for 48 hr. The plants were then transferred to a greenhouse set at 20° C. for disease to develop. Fungicide formulation, application and disease assessment on the sprayed leaves followed the procedures as described in the Example A.

[1] = system: Mycosphaerella graminicola; Anamorph: Septoria tritici; experiment: Leaf blotch of wheat (SEPTTR), percent disease control on wheat seedlings; details: Zymoseptoria tritici, rate 100 ppm
Description: Evaluation of Fungicidal Activity: Leaf Blotch of Wheat (Mycosphaerella graminicola; Anamorph: Septoria tritici; Bayer Code […]) Technical grades of materials were dissolved in acetone, which were then mixed with nine volumes of water containing 110 ppm Triton X-100. The fungicide solutions were applied onto wheat seedlings using an automated booth sprayer to run-off. All sprayed plants were allowed to air dry prior to further handling. All fungicides were evaluated using the aforementioned method for their activity vs. all target diseases. Wheat leaf blotch and brown rust activity were also evaluated using track spray applications, in which case the fungicides were formulated as EC formulations, containing 0.1% Trycol 5941 in the spray solutions. Wheat plants (variety Yuma) were grown from seed in a greenhouse in 50% mineral soil/50% soil-less Metro mix until the first leaf was fully emerged, with 7-10 seedlings per pot. These plants were inoculated with an aqueous spore suspension of Septoria tritici either prior to or after fungicide treatments. […] When disease symptoms were fully expressed on the 1st leaves of untreated plants, infection levels were assessed on a scale of 0 to 100 percent disease severity. Percent disease control was calculated using the ratio of disease severity on treated plants relative to untreated plants.

Puccinia triticina = experiment: Wheat brown rust (PUCCRT), percent disease control on wheat seedlings; details: rate 100 ppm

| Compound | pest or weed control at 100 ppm (Rhyncosporium secalis) | also measured |
| --- | --- | --- |
| CCCO[C@H]1CCC[C@H](NC(=O)c2nccc(OC)c2OCOC(C)=O)C(=O)O[C@@H](C)[C@@H]1CCC(C)C [Compound 25, ((2-(((3S,7S,8S,9S)-8-isopentyl-9-methyl-2-oxo-7-propoxyoxonan-3-yl)carbamoyl)-4-methoxypyridin-3-yl)oxy)methyl acetate] | > 70% | – |
| CCCC[C@H]1[C@H](C)OC(=O)[C@@H](NC(=O)c2nccc(OC)c2OCOC(C)=O)CCC[C@@H]1Oc1ccccc1 [Compound 33] | > 70% | – |
| COc1ccnc(C(=O)N[C@H]2CCC[C@H](Oc3ccccc3)[C@@H](CCC(C)C)[C@H](C)OC2=O)c1OC(C)=O [Compound 36] | > 70% | – |
| COc1ccnc(C(=O)N[C@H]2CCC[C@H](Oc3ccccc3)[C@@H](CCC(C)C)[C@H](C)OC2=O)c1OCOC(C)=O [Compound 40] | > 70% | – |
| COc1ccnc(C(=O)N[C@H]2CCC[C@H](OCC3CC3)[C@@H](Cc3ccc(F)cc3)[C@H](C)OC2=O)c1OCOC(C)=O [Compound 61] | > 70% | – |
| COc1ccnc(C(=O)N[C@H]2CCC[C@H](OCC(C)C)[C@@H](Cc3ccccc3)[C@H](C)OC2=O)c1O [Compound 62] | – | pest or weed control at 100 ppm ([1]; 24 h, 1 Day Protectant, read-out: Disease control SEPTTR 1DP): > 70%; pest or weed control at 100 ppm ([1]; 72 h, 3 Day Curative, read-out: Disease control SEPTTR 3DC): < 70%; pest or weed control at 100 ppm (Puccinia triticina; 24 h, 1 Day Protectant, read-out: Disease control PUCCRT 1DP): > 70%; pest or weed control at 100 ppm (Puccinia triticina; 72 h, 3 Day Curative, read-out: Disease control PUCCRT 3DC): > 70% |
| CCCO[C@H]1CCC[C@H](NC(=O)c2nccc(OC)c2OC(C)=O)C(=O)O[C@@H](C)[C@@H]1Cc1ccccc1 [Compound 70] | > 70% | – |
| CCCC[C@H]1[C@H](C)OC(=O)[C@@H](NC(=O)c2nccc(OC)c2OCOC(C)=O)CCC[C@@H]1OCC1CC1 [Compound 73] | > 70% | – |
| CCCO[C@H]1CCC[C@H](NC(=O)c2nccc(OC)c2OC(C)=O)C(=O)O[C@@H](C)[C@@H]1CCC(C)C [Compound 74, 2-((3S,7S,8S,9S)-8-isopentyl-9-methyl-2-oxo-7-propoxyoxonan-3-yl)carbamoyl)-4-methoxypyridin-3-yl acetate] | > 70% | – |

Source: patent US9549555B2, “Macrocyclic picolinamide compounds with fungicidal activity” (DOW AGROSCIENCES LLC, priority 2013, dated 2017)
